Reference: patent US20220226342A1, “COMPOSITIONS AND METHODS OF TREATING LIVER CANCERS” (The Johns Hopkins University, priority 2019, published 2022)

Assays:
Assay in all cases: IC50 in PDO line
Type in all cases: cell-based
Conditions in all cases: Homo sapiens
HCC 83-3 = tested on: HCC 83-3
Protocol: (§1) The inventors tested omacetaxine at decreasing concentrations (10 μM, 1 μM, 100 nM, 10 nM and 1 nM) to calculate the half-maximal inhibitory concentration (IC50). […] The IC50 value for each of the 40 HCC PDO lines can be found in Table 2.

HCC 80-5 = tested on: HCC 80-5
Protocol: as §1

HCC 67-3 = tested on: HCC 67-3
Protocol: as §1

HCC 40 = tested on: HCC 40
Protocol: as §1

HCC 35 = tested on: HCC 35
Protocol: as §1

HCC 26-6 = tested on: HCC 26-6
Protocol: as §1

HCC 71-2 = tested on: HCC 71-2
Protocol: as §1

HCC 38 = tested on: HCC 38
Protocol: as §1

HCC 25-1 = tested on: HCC 25-1
Protocol: as §1

HCC 26-8 = tested on: HCC 26-8
Protocol: as §1

HCC 26-5 = tested on: HCC 26-5
Protocol: as §1

HCC 50 = tested on: HCC 50
Protocol: as §1

HCC 26-7 = tested on: HCC 26-7
Protocol: as §1

HCC 26-4 = tested on: HCC 26-4
Protocol: as §1

HCC 77 = tested on: HCC 77
Protocol: as §1

HCC 65-3 = tested on: HCC 65-3
Protocol: as §1

HCC71-3 = tested on: HCC71-3
Protocol: as §1

HCC 83-2 = tested on: HCC 83-2
Protocol: as §1

HCC 80-2 = tested on: HCC 80-2
Protocol: as §1

HCC 80-3 = tested on: HCC 80-3
Protocol: as §1

Question: Which IC50 (HCC 83-3) does the source give for `COC(=O)C[C@](O)(CCCC(C)(C)O)C(=O)O[C@@H]1C(OC)=C[C@]23CCCN2CCc2cc4c(cc2[C@H]13)OCO4` [omacetaxine, omacetaxine mepusuccinate] here?
Answer: The IC50 was 8.85 nM.

Question: What about the IC50 (HCC 80-5) of the same molecule?
Answer: The IC50 was 27.6 nM.

Question: What about the IC50 (HCC 67-3) of the same molecule?
Answer: Its IC50 is 1.67 nM.

Question: What about the IC50 (HCC 40) of the same molecule?
Answer: Its IC50 is 15.8 nM.

Question: What about the IC50 (HCC 35) of the same molecule?
Answer: Its IC50 is 13.1 nM.

Question: What about the IC50 (HCC 26-6) of the same molecule?
Answer: Its IC50 is 80.8 nM.

Question: And the IC50 (HCC 71-2)?
Answer: Its IC50 is 2.05 nM.

Question: And the IC50 (HCC 38)?
Answer: Its IC50 is 18.5 nM.

Question: What about the IC50 (HCC 25-1) of the same molecule?
Answer: The IC50 was 37.4 nM.

Question: And the IC50 (HCC 26-8)?
Answer: The IC50 was 37.8 nM.

Question: And the IC50 (HCC 26-5)?
Answer: The IC50 was 66.7 nM.

Question: And the IC50 (HCC 50)?
Answer: The IC50 was 29.8 nM.

Question: What about the IC50 (HCC 26-7) of the same molecule?
Answer: Its IC50 is 1.41 nM.

Question: What about the IC50 (HCC 26-4) of the same molecule?
Answer: Its IC50 is 33.5 nM.

Question: What about the IC50 (HCC 77) of the same molecule?
Answer: The IC50 was 46.1 nM.

Question: And the IC50 (HCC 65-3)?
Answer: Its IC50 is 2.26 nM.

Question: What about the IC50 (HCC71-3) of the same molecule?
Answer: Its IC50 is 1.51 nM.

Question: And the IC50 (HCC 83-2)?
Answer: The IC50 was 19.2 nM.

Question: And the IC50 (HCC 80-2)?
Answer: Its IC50 is 44 nM.

Question: What about the IC50 (HCC 80-3) of the same molecule?
Answer: Its IC50 is 15.7 nM.
